Each structure is given as a SMILES string.

The target in this assay is T1, rat PTH1R (Rattus norvegicus, UniProt P25961).
T1 construct: expressed in transfected cells
T1 sequence (P25961 27-591): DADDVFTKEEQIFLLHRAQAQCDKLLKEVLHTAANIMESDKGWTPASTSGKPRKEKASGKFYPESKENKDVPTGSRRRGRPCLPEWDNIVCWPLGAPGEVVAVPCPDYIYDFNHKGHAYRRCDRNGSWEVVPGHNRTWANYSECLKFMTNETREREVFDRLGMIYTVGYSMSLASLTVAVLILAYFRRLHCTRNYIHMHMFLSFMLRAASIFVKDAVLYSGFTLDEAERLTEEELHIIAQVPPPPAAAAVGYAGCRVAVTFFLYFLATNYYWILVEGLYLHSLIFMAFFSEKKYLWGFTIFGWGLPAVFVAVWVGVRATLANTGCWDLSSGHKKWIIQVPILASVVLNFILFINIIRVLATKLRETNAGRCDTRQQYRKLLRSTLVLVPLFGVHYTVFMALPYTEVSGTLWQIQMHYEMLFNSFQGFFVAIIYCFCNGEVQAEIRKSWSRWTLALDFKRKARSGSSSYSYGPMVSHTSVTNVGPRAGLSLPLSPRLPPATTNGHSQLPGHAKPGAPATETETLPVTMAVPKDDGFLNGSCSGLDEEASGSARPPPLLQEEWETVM
Briefly: In vitro cAMP signaling activity via the rat PTH1R (LLC-PK46_RATO_PTH1R cells). The settings on record: LLC-PK46_RATO_PTH1R cells overexpressing rat PTH1R. The format is cell-based. From the text:
Instead of HKRK-B7 cells, LLC-PK46_RATO_PTH1R cells overexpressing rat PTH1R, which were established at Chugai Pharmaceutical, were used to take measurements in a similar manner to Reference Test Example 1.

One may read the EC20 as the concentration needed for an effect of 20%. As to `Cc1cc(N2C(=O)NC(=O)C2(C)C)cc(C)c1CCS(=O)(=O)N1CCC2(CC1)N=C(c1ccc(OC(F)(F)F)cc1)NC2=O` [Compound 7, 1-(3,5-dimethyl-4-(2-((4-oxo-2-(4-(trifluoromethoxy)phenyl)-1,3,8-triazaspiro[4.5]deca-1-en-8-yl)sulfonyl)ethyl)phenyl)-5,5-dimethylimidazolidine-2,4-dione], the EC20 amounted to 500 nM.

The values are drawn from patent US9993462B2, “Hydantoin derivative-containing pharmaceutical composition” (Chugai Seiyaku Kabushiki Kaisha, priority 2014, dated 2018).
